In US4350697A, “Antidepressant and neuroleptic benzothiopyrano [2,3-c]-pyridines” (Roussel Uclaf, priority 1980, dated 1982):
Counter-ions that a name gives are not always drawn.

Tests used:
[1] = target: neuroleptic receptors (frontal cortex membranes, major serotonergic component); assay: [3H] spiroperidol receptor binding displacement on frontal cortex membranes (test A); details: [3H] spiroperidol 0.19 nM, rat frontal cortex membranes, 37° C., 10 minutes
Excerpt: A. [^3 H] Spiroperidol binding to neuroleptic receptors in membranes prepared from the striatum and frontal cortex of rats
The binding of [^3 H] spiroperidol to frontal cortex membranes appears to entail a major serotonergic component, whereas in striatal membranes the binding is predominantly dopaminergic [Leysen et al, Nature Vol. 272 (1978) p. 168-171] The ability of drugs to displace this radioligand from the frontal cortical receptors matches their activity in other models of serotonergic function, both for agonists and antagonists. Likewise, in striatal membranes, such activities predict the antidopaminergic action of neuroleptic drugs.
[Phenyl-4(n)-^3 H] spiroperidol (Radiochemical Centre, TRK 570 21 Ci/mmol was used as the labelled ligand supplied as a 250 μCi/250 μl solution in ethanol and this solution was diluted 3.2/10,000 in assay buffer and 0.1 ml of this was added to 2 ml of binding assay.
=0.19 nM [^3 H] spiroperidol
The assay buffer was a modified 50 mM Tris HCl buffer with a pH of 7.6 and containing 120 mM of sodium chloride, 5 mM of potassium chloride, 1 mM of magnesium chloride, 2 mM of calcium chloride, 10 μM of pargyline and 0.1% of ascorbic acid.
The membrane preparation involved dissecting the frontal cortices or striata from 4 male CFHB rats according to J. Glowinski et al [Eur. J. Pharmacol., Vol. 49, (1978), P. 201-202]. The frontal cortex was taken as that cortical tissue in `C`, dorsal to a horizontal reference line passing through the point where the olfactory bulbs join the frontal cortex. The animals were killed by cervical dislocation and the dissected tissue was homogenized in 20 volumes of ice cold 0.32 M sucrose with a Teflon/glass homogeniser. The homogenate was centrifuged at 1000 g for 10 minutes and the resulting supernatant was recentrifuged at 30,000 g for 30 minutes. The supernatant was discarded and the pellet was resuspended by homogenization in 30 volumes of ice cold assay buffer.
Non-specific binding was accounted for by the inclusion of 1 μM (+) butaclamol in blank binding assays and this required a stock solution of 20 μM in distilled water. Solutions of displacing compounds were prepared at 20x final assay concentration in distilled water.
Binding assays of 1.3 ml assay buffer, 0.5 ml membrane suspension, 0.1 ml distilled H2 O or drug solutions and 0.1 ml [^3 H] spiroperidol dilution were made up in ice with the [^3 H] spiroperidol being added last and incubated at 37° C. for 10 minutes. The bound ligand was separated by filtration through Whatman GF/C filters under vacuum followed by 2×10 ml rinses of ice cold assay buffer. The filters were dried at 80° C. and counted in 5 ml volumes of ECONOFLUOR (NEN). All binding assays, controls, blanks and each displacer concentration were run in triplicate. The [^3 H] spiroperidol receptor binding displacement results on frontal cortex membranes (test A) and on striatal membranes (test B) are given in Table III below and the results are expressed as IC50 (nM).

[2] = system: hypothermia induced by apomorphine; assay: Reversal of apomorphine hypothermia in mice (test E); assay type: in vivo; details: Mus musculus, ip; male CD/l mice, test drug i.p. 30 minutes before apomorphine hydrochloride 16 mg/kg s.c.; rectal temperature 30 minutes later; read-out: ED50 for the reversal of the hypothermia induced by apomorphine HCl in mice (test E)
Experimental: D. Reversal of apomorphine hypothermia in mice
Whereas the reversal of the hypothermia induced in mice by low doses of apomorphine is a characteristic of classical neuroleptic agents, the hypothermia induced by high doses of this agent is specifically reversed by antidepressant drugs [Puech et al., In `Advances in Pharmacology and Therapeutics Vol., 5` ed. Dumont, c. Pergamon p. 171-176 (1979)]. Groups of 10 male CD/l mice (16-22 g) were dosed with vehicle or test drug intraperitoneally 30 minutes prior to the subcutaneously injection of apomorphine hydrochloride at 16 mg/kg. The rectal temperatures were recorded 30 minutes later using a rectal thermometer with digital readout.

α-noradrenergic receptor = assay: [3H] WB-4101 receptor binding displacement, rat cortical membranes (test C); details: [3H] WB-4101 0.25 nM, 25° C., 15 minutes
[3] = target: Muscarinic chloinergic receptor; assay type: binding; details: [3H] QNB 0.3 nM, rat forebrain membranes, 25° C., 1 hour; read-out: IC50 test D

`CN1CCC2=C(c3ccccc3)c3cc(Cl)ccc3SC2C1` (stereo not drawn) [Example 13] gave an IC50 [1] of 1480 nM, an ED50 [2] of over 40 mg/kg and an IC50 (α-noradrenergic receptor) of 355 nM. The IC50 [3] was 47900 nM.

For `CCCOc1ccc(C2=C3CCN(C)CC3Sc3ccccc32)cc1` (stereo not drawn) [Example 11], the IC50 [1] was 1250 nM, the ED50 [2] was 22 mg/kg and the IC50 (α-noradrenergic receptor) was 6760 nM. The IC50 [3] was over 100000 nM.

`Cc1cc(C)c(C2=C3CCN(C)CC3Sc3ccccc32)c(C)c1` (stereo not drawn) [Example 24] showed an IC50 [1] of 308 nM, an ED50 [2] of over 40 mg/kg and an IC50 (α-noradrenergic receptor) of 617 nM. It also gave an IC50 [3] of 1180 nM.

`Cc1cccc2c1SC1CN(C)CCC1=C2c1ccccc1` (stereo not drawn) [Example 18] showed an IC50 [1] of 174 nM, an ED50 [2] of over 40 mg/kg and an IC50 (α-noradrenergic receptor) of 794 nM. The IC50 [3] was 38900 nM.

For `CN1CCC2=C(c3ccccc3)c3cccc(Cl)c3SC2C1` (stereo not drawn) [Example 20], the IC50 [1] was 304 nM, the IC50 (α-noradrenergic receptor) was 1050 nM and the IC50 [3] was 67800 nM.

Compound `CN1CCC2=C(c3ccc(N)cc3)c3ccccc3SC2C1.Cl` (stereo not drawn) [Example 15, 5-(4-aminophenyl)-2-methyl-1,3,4,10a-tetrahydro-2H-[1]benzothiopyrano[2,3-c]pyridine hydrochloride] has an IC50 [1] of 158 nM, an ED50 [2] of 5 mg/kg and an IC50 (α-noradrenergic receptor) of 372 nM. The IC50 [3] was 7940 nM.

`c1ccc(C2=C3CCNCC3Sc3ccccc32)cc1` (stereo not drawn) [Example 17] gave an IC50 [1] of 624 nM, an ED50 [2] of 35 mg/kg and an IC50 (α-noradrenergic receptor) of 676 nM. The IC50 [3] was 19500 nM.

`Cc1ccc2c(c1)C(c1ccccc1)=C1CCN(C)CC1S2` (stereo not drawn) [Example 22] was tested, and the IC50 [1] was 2450 nM, the ED50 [2] was over 100 mg/kg and the IC50 (α-noradrenergic receptor) was 12500 nM. The IC50 [3] was over 100000 nM.

Compound `CN1CCC2=C(c3ccccc3)c3ccc(Cl)cc3SC2C1` (stereo not drawn) [Example 21] has an IC50 [1] of 1140 nM, an ED50 [2] of over 100 mg/kg and an IC50 (α-noradrenergic receptor) of 3020 nM. It also gave an IC50 [3] of 58900 nM.

For `CN1CCC2=C(c3ccc(N(C)C)cc3)c3ccccc3SC2C1` (stereo not drawn) [Example 6, 2-methyl-5-(4-dimethylaminophenyl)-1,3,4,10a-tetrahydro-2H[1]benzothiopyrano[2,3-c]pyridine], the IC50 [1] was 112 nM, the IC50 (α-noradrenergic receptor) was 100 nM and the IC50 [3] was over 100000 nM.

Work on `Cc1cccc(C2=C3CCN(C)CC3Sc3ccccc32)c1` (stereo not drawn) [Example 7] yielded an IC50 [1] of 251 nM, an ED50 [2] of over 40 mg/kg and an IC50 (α-noradrenergic receptor) of 813 nM. For the same compound, the IC50 [3] was 8710 nM.

For `CN1CCC2=C(c3ccc(Cl)cc3)c3ccccc3SC2C1` (stereo not drawn) [Example 2], the IC50 [1] was 602 nM, the ED50 [2] was over 40 mg/kg and the IC50 (α-noradrenergic receptor) was 692 nM. For the same compound, the IC50 [3] was over 100000 nM.

`Cc1ccc2c(c1)SC1CN(C)CCC1=C2c1ccccc1` (stereo not drawn) [Example 16] showed an IC50 [1] of 708 nM, an IC50 (α-noradrenergic receptor) of 1450 nM and an IC50 [3] of 29500 nM.

Compound `CN1CCC2=C(c3ccccc3)c3ccccc3SC2C1.Cl` (stereo not drawn) [Example 1, 2-methyl-5-phenyl-1,3,4,10a-tetrahydro-2H-[1]-benzothiopyrano[2,3-c]pyridine hydrochloride] has an IC50 [1] of 250 nM, an ED50 [2] of 30 mg/kg and an IC50 (α-noradrenergic receptor) of 394 nM. The IC50 [3] was 14000 nM.

For `CN1CCC2=C(c3cccc(Cl)c3)c3ccccc3SC2C1` (stereo not drawn) [Example 5], the IC50 [1] was 427 nM, the ED50 [2] was over 40 mg/kg and the IC50 (α-noradrenergic receptor) was 1950 nM. It also gave an IC50 [3] of 16200 nM.

`Cc1ccc(C2=C3CCN(C)CC3Sc3ccccc32)c(C)c1` (stereo not drawn) [Example 19, 2-methyl-5-(2,4-dimethylphenyl)-1,3,4,10a-tetrahydro-2H-[1]benzothiopyrano[2,3-c]pyridine hydrochloride] showed an IC50 [1] of 32 nM, an IC50 (α-noradrenergic receptor) of 23 nM and an IC50 [3] of 42700 nM.

Work on `CN1CCC2=C(c3ccc(Cl)c(Cl)c3)c3ccccc3SC2C1` (stereo not drawn) [Example 8] yielded an IC50 [1] of 537 nM, an IC50 (α-noradrenergic receptor) of 631 nM and an IC50 [3] of over 100000 nM.

`Cc1ccccc1C1=C2CCN(C)CC2Sc2ccccc21` (stereo not drawn) [Example 10] was tested, and the IC50 [1] was 105 nM, the ED50 [2] was 80 mg/kg and the IC50 (α-noradrenergic receptor) was 813 nM. The IC50 [3] was 8130 nM.

Compound `Cc1cccc(C)c1C1=C2CCN(C)CC2Sc2ccccc21` (stereo not drawn) [Example 23] has an IC50 [1] of 331 nM, an ED50 [2] of over 40 mg/kg and an IC50 (α-noradrenergic receptor) of 617 nM. For the same compound, the IC50 [3] was 4370 nM.

For `COc1ccc(C2=C3CCN(C)CC3Sc3ccccc32)cc1` (stereo not drawn) [Example 4], the IC50 [1] was 131 nM, the ED50 [2] was 15 mg/kg and the IC50 (α-noradrenergic receptor) was 120 nM. For the same compound, the IC50 [3] was 62000 nM.

`CCc1ccc(C2=C3CCN(C)CC3Sc3ccccc32)cc1` (stereo not drawn) [Example 9] was tested, and the IC50 [1] was 50 nM, the ED50 [2] was over 40 mg/kg and the IC50 (α-noradrenergic receptor) was 59 nM. For the same compound, the IC50 [3] was over 100000 nM.

`Cc1ccc(C2=C3CCN(C)CC3Sc3ccccc32)cc1C` (stereo not drawn) [Example 14] was tested, and the IC50 [1] was 155 nM, the ED50 [2] was 30 mg/kg and the IC50 (α-noradrenergic receptor) was 502 nM. It also gave an IC50 [3] of over 100000 nM.

In the case of `Cc1ccc(C2=C3CCN(C)CC3Sc3ccccc32)cc1` (stereo not drawn) [Example 3, 2-methyl-5-(4-tolyl)-1,3,4,10a-tetrahydro-2H[1]benzothiopyrano[2,3-c]pyridine], the IC50 [1] is reported as 25 nM, the ED50 [2] is reported as 20 mg/kg and the IC50 (α-noradrenergic receptor) is reported as 29 nM. The IC50 [3] was 73600 nM.

Work on `CCN1CCC2=C(c3ccccc3)c3ccccc3SC2C1` (stereo not drawn) [Example 12] yielded an IC50 [1] of 398 nM, an IC50 (α-noradrenergic receptor) of 502 nM and an IC50 [3] of 19000 nM.
